Legend:
Test in all cases: KinomeScan 96-kinase panel
Format in all cases: binding
Settings in all cases: compound concentration 1000 nM
AXL = AXL (Homo sapiens (Human), UniProt P30530)
Source text: (§1) The details of the screening technology were described in Fabian, M. A. et al, Nat., Biotechnol. 2005, 23, 329 and Karaman, M. W. et al, Nat., Biotechnol. 2008, 26, 127. From the above representative results, it can be seen that the compounds of the present invention have potent inhibitory activities on kinases including ALK, AXL, VEGFR2, PDGFR-α, PDGFR-β, c-KIT, Flt3, MEK1, MEK2, CSF1R, EPHA2, EPHA2, MKNK2, SRC, TIE2 and their mutants. Accordingly, the compounds of the present invention can be used for the treatment of diseases caused by abnormal activities of these kinases, e.g., cancer, psoriasis, hepatic cirrhosis, diabetes, diseases involving angiogenesis, eye diseases, immune system diseases, cardiovascular diseases, and so forth.

p38-alpha = p38-alpha (Homo sapiens (Human), UniProt Q16539)
Source text: as §1

PDPK1 = PDPK1 (Homo sapiens (Human), UniProt O15530)
Source text: as §1

AKT2 = AKT2 (Homo sapiens (Human), UniProt P31751)
Source text: as §1

PLK4 = PLK4 (Homo sapiens (Human), UniProt O00444)
Source text: as §1

PAK1 = PAK1 (Homo sapiens (Human), UniProt Q13153)
Source text: as §1

ALK = ALK (Homo sapiens (Human), UniProt Q9UM73)
Source text: as §1

PCTK1 = PCTK1 (Homo sapiens (Human), UniProt Q00536)
Source text: as §1

EPHA2 = EPHA2 (Homo sapiens (Human), UniProt P29317)
Source text: as §1

ERBB4 = ERBB4 (Homo sapiens (Human), UniProt Q15303)
Source text: as §1

[1] = molecular target: TYK2 (JH1domain-catalytic) (Homo sapiens (Human), UniProt P29597)
Source text: as §1

PIM3 = PIM3 (Homo sapiens (Human), UniProt Q86V86)
Source text: as §1

SRC = SRC (Homo sapiens (Human), UniProt P12931)
Source text: as §1

MEK2 = MEK2 (Homo sapiens (Human), UniProt P36507)
Source text: as §1

ULK2 = ULK2 (Homo sapiens (Human), UniProt Q8IYT8)
Source text: as §1

PAK4 = PAK4 (Homo sapiens (Human), UniProt O96013)
Source text: as §1

IGF1R = IGF1R (Homo sapiens (Human), UniProt P08069)
Source text: as §1

SRPK3 = SRPK3 (Homo sapiens (Human), UniProt Q9UPE1)
Source text: as §1

KIT (D816V) = KIT (D816V) (Homo sapiens (Human), UniProt P10721, D816V)
Source text: as §1

MLK1 = MLK1 (Homo sapiens (Human), UniProt P80192)
Source text: as §1

ERBB2 = ERBB2 (Homo sapiens (Human), UniProt P04626)
Source text: as §1

EGFR = EGFR (Homo sapiens (Human), UniProt P00533)
Source text: as §1

[2] = molecular target: JAK2 (JH1domain-catalytic) (Homo sapiens (Human), UniProt O60674)
Source text: as §1

PIK3CG = PIK3CG (Homo sapiens (Human), UniProt P48736)
Source text: as §1

PDGFRB = PDGFRB (Homo sapiens (Human), UniProt P09619)
Source text: as §1

PIK3CA = PIK3CA (Homo sapiens (Human), UniProt P42336)
Source text: as §1

IKK-alpha = IKK-alpha (Homo sapiens (Human), UniProt O15111)
Source text: as §1

CSNK1G2 = CSNK1G2 (Homo sapiens (Human), UniProt P78368)
Source text: as §1

RIOK2 = RIOK2 (Homo sapiens (Human), UniProt Q9BVS4)
Source text: as §1

BTK = BTK (Homo sapiens (Human), UniProt Q06187)
Source text: as §1

JNK3 = JNK3 (Homo sapiens (Human), UniProt P53779)
Source text: as §1

ADCK3 = ADCK3 (Homo sapiens (Human), UniProt Q8NI60)
Source text: as §1

MET = MET (Homo sapiens (Human), UniProt P08581)
Source text: as §1

FAK = FAK (Homo sapiens (Human), UniProt Q05397)
Source text: as §1

DCAMKL1 = DCAMKL1 (Homo sapiens (Human), UniProt O15075)
Source text: as §1

[3] = molecular target: ABL1(T315I)-phosphorylated (Homo sapiens (Human), UniProt P00519, T315I)
Source text: as §1

SNARK = SNARK (Homo sapiens (Human), UniProt Q9H093)
Source text: as §1

ROCK2 = ROCK2 (Homo sapiens (Human), UniProt O75116)
Source text: as §1

ADCK3, sequence (Q8NI60 163-647): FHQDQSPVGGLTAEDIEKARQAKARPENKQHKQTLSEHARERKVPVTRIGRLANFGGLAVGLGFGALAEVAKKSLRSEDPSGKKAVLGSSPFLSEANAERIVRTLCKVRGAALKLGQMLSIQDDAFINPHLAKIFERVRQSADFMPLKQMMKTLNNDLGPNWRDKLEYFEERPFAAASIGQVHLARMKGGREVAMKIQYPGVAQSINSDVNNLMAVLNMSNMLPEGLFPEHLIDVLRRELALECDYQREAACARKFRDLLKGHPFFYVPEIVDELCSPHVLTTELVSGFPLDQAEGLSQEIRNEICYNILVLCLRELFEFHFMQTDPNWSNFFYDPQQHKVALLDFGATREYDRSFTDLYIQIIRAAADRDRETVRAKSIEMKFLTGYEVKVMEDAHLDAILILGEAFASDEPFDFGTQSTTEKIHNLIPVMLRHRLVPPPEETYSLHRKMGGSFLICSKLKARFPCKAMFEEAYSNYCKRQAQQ
EGFR, sequence (P00533 25-1210): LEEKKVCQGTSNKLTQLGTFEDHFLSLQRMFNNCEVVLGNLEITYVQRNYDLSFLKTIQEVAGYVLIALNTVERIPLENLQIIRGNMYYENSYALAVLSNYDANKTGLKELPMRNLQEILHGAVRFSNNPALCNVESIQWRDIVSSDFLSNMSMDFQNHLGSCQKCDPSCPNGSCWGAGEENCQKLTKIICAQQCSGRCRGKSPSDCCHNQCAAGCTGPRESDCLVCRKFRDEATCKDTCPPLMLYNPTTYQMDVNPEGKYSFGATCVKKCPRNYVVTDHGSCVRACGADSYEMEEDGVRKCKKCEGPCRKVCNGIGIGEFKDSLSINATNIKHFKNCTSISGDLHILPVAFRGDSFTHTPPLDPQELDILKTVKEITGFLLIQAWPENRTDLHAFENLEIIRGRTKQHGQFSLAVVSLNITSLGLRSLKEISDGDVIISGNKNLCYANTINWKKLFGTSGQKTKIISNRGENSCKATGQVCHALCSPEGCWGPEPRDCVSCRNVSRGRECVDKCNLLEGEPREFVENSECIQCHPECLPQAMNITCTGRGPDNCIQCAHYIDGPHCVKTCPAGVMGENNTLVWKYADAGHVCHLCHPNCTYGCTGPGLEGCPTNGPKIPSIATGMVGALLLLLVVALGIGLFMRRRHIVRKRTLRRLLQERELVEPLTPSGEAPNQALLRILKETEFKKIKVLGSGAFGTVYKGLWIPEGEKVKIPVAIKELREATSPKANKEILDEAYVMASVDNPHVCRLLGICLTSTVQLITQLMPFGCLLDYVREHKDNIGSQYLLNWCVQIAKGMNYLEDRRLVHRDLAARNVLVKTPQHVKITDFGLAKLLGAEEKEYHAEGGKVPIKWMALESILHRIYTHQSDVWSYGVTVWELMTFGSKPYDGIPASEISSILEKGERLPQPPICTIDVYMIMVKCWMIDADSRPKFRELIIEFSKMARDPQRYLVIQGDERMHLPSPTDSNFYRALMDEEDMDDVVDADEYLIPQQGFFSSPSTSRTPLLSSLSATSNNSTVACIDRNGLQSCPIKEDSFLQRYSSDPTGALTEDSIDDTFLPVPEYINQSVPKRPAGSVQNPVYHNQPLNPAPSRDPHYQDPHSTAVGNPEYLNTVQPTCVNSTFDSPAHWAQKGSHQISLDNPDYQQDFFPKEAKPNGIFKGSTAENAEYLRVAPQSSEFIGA
MLK1, sequence (P80192 whole entry): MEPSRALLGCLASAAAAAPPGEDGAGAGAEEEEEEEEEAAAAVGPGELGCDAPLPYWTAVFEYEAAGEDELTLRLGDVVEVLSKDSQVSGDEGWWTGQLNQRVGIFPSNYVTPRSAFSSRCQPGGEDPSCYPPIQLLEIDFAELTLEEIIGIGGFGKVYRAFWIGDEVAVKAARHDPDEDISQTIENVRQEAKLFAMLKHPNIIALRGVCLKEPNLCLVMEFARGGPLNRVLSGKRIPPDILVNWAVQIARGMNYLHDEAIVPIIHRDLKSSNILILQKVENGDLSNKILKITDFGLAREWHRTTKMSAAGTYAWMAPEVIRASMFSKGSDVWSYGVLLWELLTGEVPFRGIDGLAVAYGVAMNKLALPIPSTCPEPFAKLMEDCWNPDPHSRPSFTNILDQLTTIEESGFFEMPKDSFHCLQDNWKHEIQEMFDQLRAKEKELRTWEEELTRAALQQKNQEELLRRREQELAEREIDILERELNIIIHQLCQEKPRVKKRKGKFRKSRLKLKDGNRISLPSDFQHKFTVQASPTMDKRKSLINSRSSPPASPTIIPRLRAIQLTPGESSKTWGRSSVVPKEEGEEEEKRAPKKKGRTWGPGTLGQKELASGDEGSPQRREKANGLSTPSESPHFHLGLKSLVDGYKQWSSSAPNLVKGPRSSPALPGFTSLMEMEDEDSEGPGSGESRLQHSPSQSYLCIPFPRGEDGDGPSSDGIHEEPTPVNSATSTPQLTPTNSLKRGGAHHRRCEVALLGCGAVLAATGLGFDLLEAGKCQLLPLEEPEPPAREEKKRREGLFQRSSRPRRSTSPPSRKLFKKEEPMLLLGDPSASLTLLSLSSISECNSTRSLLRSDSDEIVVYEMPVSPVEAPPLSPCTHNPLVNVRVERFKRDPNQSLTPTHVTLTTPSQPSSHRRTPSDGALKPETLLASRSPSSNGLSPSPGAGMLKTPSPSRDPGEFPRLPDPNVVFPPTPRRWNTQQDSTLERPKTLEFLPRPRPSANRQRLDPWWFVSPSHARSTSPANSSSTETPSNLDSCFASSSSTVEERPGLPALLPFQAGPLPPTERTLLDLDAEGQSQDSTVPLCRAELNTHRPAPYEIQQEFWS
MET, sequence (P08581 25-1390): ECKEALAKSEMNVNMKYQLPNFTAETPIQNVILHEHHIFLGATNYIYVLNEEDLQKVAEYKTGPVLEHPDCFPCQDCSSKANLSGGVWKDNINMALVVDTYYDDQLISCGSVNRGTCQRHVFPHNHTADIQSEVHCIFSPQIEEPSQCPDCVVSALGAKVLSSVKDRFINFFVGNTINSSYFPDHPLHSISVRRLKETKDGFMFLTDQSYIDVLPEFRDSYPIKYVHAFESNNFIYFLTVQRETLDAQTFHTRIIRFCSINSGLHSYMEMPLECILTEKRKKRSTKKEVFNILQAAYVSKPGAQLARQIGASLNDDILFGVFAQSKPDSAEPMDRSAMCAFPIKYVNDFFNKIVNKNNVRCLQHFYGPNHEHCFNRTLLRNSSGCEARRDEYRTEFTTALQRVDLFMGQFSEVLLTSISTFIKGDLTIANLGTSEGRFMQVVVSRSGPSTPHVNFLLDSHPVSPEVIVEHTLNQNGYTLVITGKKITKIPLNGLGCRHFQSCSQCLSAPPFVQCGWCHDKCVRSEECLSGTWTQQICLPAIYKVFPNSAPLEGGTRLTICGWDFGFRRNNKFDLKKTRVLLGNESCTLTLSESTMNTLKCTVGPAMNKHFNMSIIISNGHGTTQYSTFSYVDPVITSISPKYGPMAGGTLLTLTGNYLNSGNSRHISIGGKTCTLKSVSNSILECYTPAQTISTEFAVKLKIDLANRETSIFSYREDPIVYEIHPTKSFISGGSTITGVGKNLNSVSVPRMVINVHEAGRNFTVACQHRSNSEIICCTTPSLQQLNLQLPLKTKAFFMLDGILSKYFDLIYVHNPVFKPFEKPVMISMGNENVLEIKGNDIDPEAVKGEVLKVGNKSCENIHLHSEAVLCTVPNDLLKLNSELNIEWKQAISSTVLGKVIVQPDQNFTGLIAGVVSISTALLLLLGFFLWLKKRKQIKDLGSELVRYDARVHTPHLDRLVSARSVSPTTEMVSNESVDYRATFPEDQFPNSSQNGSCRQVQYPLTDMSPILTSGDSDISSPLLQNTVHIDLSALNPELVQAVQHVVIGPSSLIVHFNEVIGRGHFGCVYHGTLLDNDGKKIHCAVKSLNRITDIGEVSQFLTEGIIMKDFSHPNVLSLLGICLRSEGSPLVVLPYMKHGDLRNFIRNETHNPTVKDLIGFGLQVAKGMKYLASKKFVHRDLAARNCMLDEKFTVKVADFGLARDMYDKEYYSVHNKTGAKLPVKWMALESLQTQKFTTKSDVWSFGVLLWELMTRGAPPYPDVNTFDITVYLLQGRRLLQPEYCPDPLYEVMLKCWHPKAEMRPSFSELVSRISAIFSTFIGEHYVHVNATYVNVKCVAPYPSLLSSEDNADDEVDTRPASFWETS
JAK2 (JH1domain-catalytic), sequence (O60674 849-1124): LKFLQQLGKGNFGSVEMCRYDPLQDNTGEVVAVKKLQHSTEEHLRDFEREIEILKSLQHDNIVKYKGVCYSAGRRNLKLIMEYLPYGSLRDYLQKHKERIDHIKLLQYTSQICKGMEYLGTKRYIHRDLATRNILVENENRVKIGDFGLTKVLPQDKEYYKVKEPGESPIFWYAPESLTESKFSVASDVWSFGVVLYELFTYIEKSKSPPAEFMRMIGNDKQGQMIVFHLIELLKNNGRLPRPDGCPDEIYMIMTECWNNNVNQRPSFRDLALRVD
TYK2 (JH1domain-catalytic), sequence (P29597 897-1176): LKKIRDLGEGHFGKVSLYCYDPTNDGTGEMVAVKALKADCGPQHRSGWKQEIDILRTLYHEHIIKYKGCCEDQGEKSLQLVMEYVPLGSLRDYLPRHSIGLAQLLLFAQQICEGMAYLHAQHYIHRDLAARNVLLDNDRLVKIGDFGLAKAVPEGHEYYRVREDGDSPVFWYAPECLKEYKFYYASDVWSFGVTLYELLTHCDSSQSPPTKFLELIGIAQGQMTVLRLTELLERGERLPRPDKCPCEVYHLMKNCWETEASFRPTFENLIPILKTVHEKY

In the case of `COc1cc2c(Oc3ccc(NC(=O)C4(C(=O)Nc5ccc(F)cc5)CC4)cc3F)ccnc2cc1OCCCCCC(=O)NO` [Example 13, N1′-[3-fluoro-4-[[7-[6-(hydroxyamino)-6-oxohexyloxy]-6-methoxy-4-quinolyl]oxy]phenyl]-N1-(4-fluorophenyl)cyclopropane-1,1-dicarboxamide], the “% Ctrl@1000 nM” value (AXL) is reported as 1.2 % Ctrl, the “% Ctrl@1000 nM” value (p38-alpha) is reported as 43 % Ctrl and the “% Ctrl@1000 nM” value (PDPK1) is reported as 87 % Ctrl. For the same compound, the “% Ctrl@1000 nM” value (AKT2) was 100 % Ctrl, the “% Ctrl@1000 nM” value (PLK4) was 0.55 % Ctrl and the “% Ctrl@1000 nM” value (PAK1) was 66 % Ctrl. The “% Ctrl@1000 nM” value (ALK) was 1.2 % Ctrl, the “% Ctrl@1000 nM” value (PCTK1) was 100 % Ctrl and the “% Ctrl@1000 nM” value (EPHA2) was 0.9 % Ctrl. For the same compound, the “% Ctrl@1000 nM” value (ERBB4) was 17 % Ctrl, the “% Ctrl@1000 nM” value [1] was 98 % Ctrl and the “% Ctrl@1000 nM” value (PIM3) was 100 % Ctrl. The “% Ctrl@1000 nM” value (SRC) was 0.15 % Ctrl, the “% Ctrl@1000 nM” value (MEK2) was 1.8 % Ctrl and the “% Ctrl@1000 nM” value (ULK2) was 100 % Ctrl. The “% Ctrl@1000 nM” value (PAK4) was 100 % Ctrl, the “% Ctrl@1000 nM” value (IGF1R) was 21 % Ctrl and the “% Ctrl@1000 nM” value (SRPK3) was 76 % Ctrl. The “% Ctrl@1000 nM” value (KIT (D816V)) was 2.2 % Ctrl, the “% Ctrl@1000 nM” value (MLK1) was 32 % Ctrl and the “% Ctrl@1000 nM” value (ERBB2) was 15 % Ctrl. For the same compound, the “% Ctrl@1000 nM” value (EGFR) was 6.8 % Ctrl, the “% Ctrl@1000 nM” value [2] was 64 % Ctrl and the “% Ctrl@1000 nM” value (PIK3CG) was 66 % Ctrl. For the same compound, the “% Ctrl@1000 nM” value (PDGFRB) was 0 % Ctrl, the “% Ctrl@1000 nM” value (PIK3CA) was 100 % Ctrl and the “% Ctrl@1000 nM” value (IKK-alpha) was 100 % Ctrl. For the same compound, the “% Ctrl@1000 nM” value (CSNK1G2) was 99 % Ctrl, the “% Ctrl@1000 nM” value (RIOK2) was 100 % Ctrl and the “% Ctrl@1000 nM” value (BTK) was 2.6 % Ctrl. The “% Ctrl@1000 nM” value (JNK3) was 100 % Ctrl, the “% Ctrl@1000 nM” value (ADCK3) was 100 % Ctrl and the “% Ctrl@1000 nM” value (MET) was 7.7 % Ctrl. The “% Ctrl@1000 nM” value (FAK) was 12 % Ctrl, the “% Ctrl@1000 nM” value (DCAMKL1) was 100 % Ctrl and the “% Ctrl@1000 nM” value [3] was 19 % Ctrl. For the same compound, the “% Ctrl@1000 nM” value (SNARK) was 91 % Ctrl and the “% Ctrl@1000 nM” value (ROCK2) was 53 % Ctrl.
